In patent publication US8569267B2, “Tetracyclic tetrahydrofuran derivatives containing cyclic amine side chain” (Janssen Pharmaceutica, NV, priority 2005, dated 2013):

Assays:
[1] = target: T1, human cloned 5-HT2C receptor, expressed in CHO cells (Homo sapiens, UniProt P28335); experiment: In vitro binding affinity for 5-HT2C receptor ([3H]mesulergine radioligand binding); conditions: human cloned 5-HT2C receptor; for IC50: read-out: 5-HT2C pIC50 (converted)
T1 construct: expressed in transfected cells; host or cells: CHO cells
T1 sequence (P28335 33-458): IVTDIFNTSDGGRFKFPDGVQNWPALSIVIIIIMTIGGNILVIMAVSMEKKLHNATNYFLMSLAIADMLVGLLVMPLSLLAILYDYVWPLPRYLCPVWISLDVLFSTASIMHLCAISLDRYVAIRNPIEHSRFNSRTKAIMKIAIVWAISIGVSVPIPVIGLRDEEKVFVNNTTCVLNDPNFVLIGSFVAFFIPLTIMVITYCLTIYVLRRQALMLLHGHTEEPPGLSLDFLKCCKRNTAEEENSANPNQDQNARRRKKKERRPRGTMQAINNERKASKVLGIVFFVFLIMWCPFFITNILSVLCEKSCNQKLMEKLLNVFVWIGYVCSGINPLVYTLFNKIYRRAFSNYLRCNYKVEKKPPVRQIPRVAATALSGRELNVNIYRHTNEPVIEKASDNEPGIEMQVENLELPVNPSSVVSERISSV
In short: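 Receptor-bound radioligand counted after separation from unbound label once equilibrium is reached. Test compound added across a concentration range to tissue preparation plus radioligand; inhibition of binding reflects affinity and concentration.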

[2] = target: T2, human Dopamine D2L receptor (Homo sapiens, UniProt P14416); experiment: In vitro binding affinity for human D2L receptor ([3H]Spiperone binding); conditions: human D2L receptor-transfected CHO cell membranes; for IC50: read-out: D2L pIC50 (converted)
T2 construct: expressed in transfected cells; host or cells: CHO cells
T2 sequence (P14416 whole entry): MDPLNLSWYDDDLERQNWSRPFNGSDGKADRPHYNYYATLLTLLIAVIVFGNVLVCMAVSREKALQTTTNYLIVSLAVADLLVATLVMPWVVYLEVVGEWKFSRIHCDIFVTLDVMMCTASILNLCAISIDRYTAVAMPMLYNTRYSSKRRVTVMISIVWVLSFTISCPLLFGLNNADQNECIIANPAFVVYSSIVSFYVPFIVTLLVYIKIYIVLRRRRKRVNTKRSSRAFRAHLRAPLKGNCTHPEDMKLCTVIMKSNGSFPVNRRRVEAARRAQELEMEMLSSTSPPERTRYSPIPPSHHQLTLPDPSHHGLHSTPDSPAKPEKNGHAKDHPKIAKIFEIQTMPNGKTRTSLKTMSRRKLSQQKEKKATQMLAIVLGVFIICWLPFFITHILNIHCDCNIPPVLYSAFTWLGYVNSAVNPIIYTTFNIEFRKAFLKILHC
In short: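 Competition curves were expressed as percent specific binding, measured by scintillation counting after filtration onto GF/B filters and ice-cold Tris washes. Test compounds competed with [3H]Spiperone, added from a 2 nmol/L dilution, for 30 min at 37° C on transfected CHO membranes in pH 7.7 Tris-HCl salt buffer. Butaclamol at 10^−6 mol/l final marked non-specific binding.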

[3] = target: T3, NET (norepinephrine transporter) (Rattus norvegicus, UniProt Q63380); experiment: In vitro determination of NET reuptake inhibition ([3H]Nixosetine binding, rat brain cortex); conditions: rat brain cortex; for IC50: read-out: NET pIC50 (converted)
T3 construct: Cortex from rat brain was collected and homogenised; from tissue; host or cells: rat brain cortex
T3 sequence (Q63380 1-617): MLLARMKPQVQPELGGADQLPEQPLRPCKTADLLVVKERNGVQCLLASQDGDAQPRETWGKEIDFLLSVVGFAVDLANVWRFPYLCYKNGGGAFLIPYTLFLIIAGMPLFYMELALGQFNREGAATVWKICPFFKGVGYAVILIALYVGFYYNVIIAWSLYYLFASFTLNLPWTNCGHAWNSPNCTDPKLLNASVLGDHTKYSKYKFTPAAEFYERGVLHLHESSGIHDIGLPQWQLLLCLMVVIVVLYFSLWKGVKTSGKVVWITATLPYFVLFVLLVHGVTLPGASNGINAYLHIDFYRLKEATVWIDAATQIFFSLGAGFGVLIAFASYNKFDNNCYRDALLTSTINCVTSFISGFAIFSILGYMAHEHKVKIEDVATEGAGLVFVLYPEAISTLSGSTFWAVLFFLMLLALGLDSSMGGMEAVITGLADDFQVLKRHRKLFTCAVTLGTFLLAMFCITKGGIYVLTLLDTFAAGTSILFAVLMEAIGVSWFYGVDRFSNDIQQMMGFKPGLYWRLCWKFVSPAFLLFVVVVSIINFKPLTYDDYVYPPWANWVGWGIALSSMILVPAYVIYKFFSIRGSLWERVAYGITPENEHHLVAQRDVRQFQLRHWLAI
In short: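 Competition curves and percentage specific binding came from scintillation counting of filter-trapped radioactivity. The membranes were rat cortical homogenate in pH 7.4 Tris buffer with 120 mM NaCl and 5 mM KCl. Test compounds competed with [3H]nisoxetine for binding.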

[4] = target: T4, human cloned 5-HT2A receptor, expressed in L929 cells (Homo sapiens, UniProt P28223); experiment: In vitro binding affinity for 5-HT2A receptor ([125I]R91150 radioligand binding); conditions: human cloned 5-HT2A receptor in L929 cells, [125I]R91150; for IC50: read-out: 5-HT2A pIC50 (converted)
T4 construct: expressed in transfected cells; host or cells: L929 cells
T4 sequence (P28223 whole entry): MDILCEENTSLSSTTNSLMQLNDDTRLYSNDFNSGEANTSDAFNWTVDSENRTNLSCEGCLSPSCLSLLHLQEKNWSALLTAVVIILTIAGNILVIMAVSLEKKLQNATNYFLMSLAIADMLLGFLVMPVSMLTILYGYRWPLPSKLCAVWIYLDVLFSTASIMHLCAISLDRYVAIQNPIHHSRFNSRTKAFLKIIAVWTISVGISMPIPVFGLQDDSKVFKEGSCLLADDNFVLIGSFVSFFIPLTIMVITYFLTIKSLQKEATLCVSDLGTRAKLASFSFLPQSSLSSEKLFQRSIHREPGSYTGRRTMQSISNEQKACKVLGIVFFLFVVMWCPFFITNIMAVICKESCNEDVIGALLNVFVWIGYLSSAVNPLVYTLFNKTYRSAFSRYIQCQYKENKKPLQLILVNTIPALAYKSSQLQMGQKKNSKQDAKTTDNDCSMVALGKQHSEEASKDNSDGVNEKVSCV
Procedure: In Vitro Binding Affinity for 5-HT2A and 5-HT2C Receptors
The interaction of the compounds of Formula (I) with 5-HT2A and 5-HT2C receptors was assessed in in vitro radioligand binding experiments. […] During the incubation, the radioligands bind to the receptor. When equilibrium of binding is reached, the receptor bound radioactivity is separated from the non-bound radioactivity, and the receptor bound activity is counted. The interaction of the test compounds with the receptors is assessed in competition binding experiments. Various concentrations of the test compound are added to the incubation mixture containing the tissue preparation and the radioligand. Binding of the radioligand will be inhibited by the test compound in proportion to its binding affinity and its concentration. The affinities of the compounds for the 5-HT2 receptors were measured by means of radioligand binding studies conducted with: (a) human cloned 5-HT2A receptor, expressed in L929 cells using [^125I]R91150 as radioligand and (b) human cloned 5-HT2C receptor, expressed in CHO cells using [^3H]mesulergine as radioligand.

5-HT2C pIC50 [1] | D2L pIC50 [2] | NET pIC50 [3] | 5-HT2A pIC50 [4] | SMILES | IC50 [1] [nM] | IC50 [2] [nM] | IC50 [3] [nM] | IC50 [4] [nM]
 |  |  |  | NCCN1CCN(CC2CC3c4ccccc4Cc4ccc(F)cc4C3O2)CC1 (stereo not drawn) [Compound 47] | 34.7 | 10 | > 10000 | 6.46
 |  |  |  | Fc1ccc2c(c1)C1OC(CN3CCN(CC=Cc4ccccc4)CC3)CC1c1ccccc1C2 (stereo not drawn) [Compound 48] | 32.4 | 9.55 | 2090 | 30.9
 |  |  |  | CC(=Cc1ccccc1)CN1CCN(CC2CC3c4ccccc4Cc4ccc(F)cc4C3O2)CC1 (stereo not drawn) [Compound 49] | 120 | 33.1 | 2570 | 33.9
 |  |  |  | CCCCCC(=Cc1ccccc1)CN1CCN(CC2CC3c4ccccc4Cc4ccc(F)cc4C3O2)CC1 (stereo not drawn) [Compound 50] | 105 | 70.8 | 2140 | 34.7
 |  |  |  | O=C(CCN1CCN(CC2CC3c4ccccc4Cc4ccc(F)cc4C3O2)CC1)c1ccc(F)cc1 (stereo not drawn) [Compound 52] | 2.88 | 1.2 | 490 | 3.39
 |  |  |  | Fc1ccc(OCCN2CCN(CC3CC4c5ccccc5Cc5ccc(F)cc5C4O3)CC2)cc1 (stereo not drawn) [Compound 54] | 8.13 | 2.45 | 2190 | 7.59
 |  |  |  | OC(COc1ccc(Cl)cc1)CN1CCN(C[C@H]2C[C@@H]3c4ccccc4Cc4ccc(F)cc4[C@@H]3O2)CC1 (stereo partly drawn) [Compound 56] | 10.2 | 26.3 | 5620 | 6.03
 |  |  |  | Fc1ccc2c(c1)C1OC(CN3CCN(Cc4cccs4)CC3)CC1c1ccccc1C2 (stereo not drawn) [Compound 58] | 25.7 | 7.41 | 977 | 11
 |  |  |  | Fc1ccc2c(c1)C1OC(CN3CCN(Cc4ccsc4)CC3)CC1c1ccccc1C2 (stereo not drawn) [Compound 59] | 49 | 6.92 | 1260 | 14.8
 |  |  |  | Fc1ccc2c(c1)C1OC(CN3CCN(Cc4ccco4)CC3)CC1c1ccccc1C2 (stereo not drawn) [Compound 60] | 25.1 | 6.31 | 1550 | 7.76
7.66 | 8.09 | 5.88 | 8.03 | Fc1ccc2c(c1)C1OC(CN3CCN(Cc4ccoc4)CC3)CC1c1ccccc1C2.O=C(O)C(F)(F)F (stereo not drawn) [Compound 61, [2R-(2α, 3aα, 12bβ)]1-(11-fluoro-3,3a,8,12b-tetrahydro-2H-1-oxa-dibenzo[e,h]-azulen-2-ylmethyl)-4-furan-3-ylmethyl-piperazine.trifluoroacetate (1:1)] |  |  |  | 
 |  |  |  | Fc1ccc2c(c1)C1OC(CN3CCN(Cc4ccc(-c5ccc(Cl)cc5)o4)CC3)CC1c1ccccc1C2 (stereo not drawn) [Compound 62] | 107 | 75.9 | 3470 | 47.9
 |  |  |  | O=[N+]([O-])c1ccc(-c2ccc(CN3CCN(CC4CC5c6ccccc6Cc6ccc(F)cc6C5O4)CC3)o2)cc1 (stereo not drawn) [Compound 63] | 50.1 | 74.1 | 562 | 27.5
 |  |  |  | Fc1ccc2c(c1)C1OC(CN3CCN(Cc4cc5ccccc5o4)CC3)CC1c1ccccc1C2 (stereo not drawn) [Compound 64] | 28.8 | 15.5 | 2690 | 26.3
 |  |  |  | Fc1ccc2c(c1)C1OC(CN3CCN(Cc4cnc[nH]4)CC3)CC1c1ccccc1C2 (stereo not drawn) [Compound 66] | 37.2 | 13.8 | 4370 | 7.41
 |  |  |  | Fc1ccc2c(c1)C1OC(CN3CCN(Cc4cnc(-c5ccccc5)[nH]4)CC3)CC1c1ccccc1C2 (stereo not drawn) [Compound 67] | 4.27 | 8.51 | 4900 | 3.16
 |  |  |  | O=S(=O)(c1ccccc1)n1cccc1CN1CCN(CC2CC3c4ccccc4Cc4ccc(F)cc4C3O2)CC1 (stereo not drawn) [Compound 68] | 117 | 91.2 | 2400 | 67.6

5-HT2C pIC50 [1] | D2L pIC50 [2] | NET pIC50 [3] | 5-HT2A pIC50 [4] | SMILES | IC50 [1] [nM] | IC50 [2] [nM] | IC50 [3] [nM] | IC50 [4] [nM]
 |  |  |  | Fc1ccc2c(c1)[C@@H]1O[C@@H](CN3CCN(CC4CCCCC4)CC3)C[C@@H]1c1ccccc1C2 [Compound 69] | 79.4 | 7.24 | > 10000 | 41.7
 |  |  |  | N#Cc1cccc(CN2CCN(CC3CC4c5ccccc5Cc5ccc(F)cc5C4O3)CC2)c1 (stereo not drawn) [Compound 70] | 15.8 | 20.4 | 708 | 7.24
 |  |  |  | COC(=O)c1ccc(CN2CCN(CC3CC4c5ccccc5Cc5ccc(F)cc5C4O3)CC2)cc1 (stereo not drawn) [Compound 72] | 60.3 | 26.9 | 1170 | 30.9
 |  |  |  | O=[N+]([O-])c1ccc(CN2CCN(CC3CC4c5ccccc5Cc5ccc(F)cc5C4O3)CC2)cc1 (stereo not drawn) [Compound 73] | 46.8 | 18.6 | 3630 | 20.4
 |  |  |  | Fc1ccc2c(c1)C1OC(CN3CCN(Cc4ccc5ccccc5c4)CC3)CC1c1ccccc1C2 (stereo not drawn) [Compound 74] | 162 | 30.9 | 3160 | 126
 |  |  |  | Fc1ccc2c(c1)C1OC(CN3CCN(Cc4cccc5ccccc45)CC3)CC1c1ccccc1C2 (stereo not drawn) [Compound 75] | 97.7 | 63.1 | 1620 | 17.4
 |  |  |  | Fc1ccc2c(c1)C1OC(CN3CCN(Cc4cccc(Oc5ccccc5)c4)CC3)CC1c1ccccc1C2 (stereo not drawn) [Compound 76] | 102 | 67.6 | 851 | 66.1
 |  |  |  | COCC(=O)N1CCN(CC2CC3c4ccccc4Cc4ccc(F)cc4C3O2)CC1 (stereo not drawn) [Compound 77] | 13.2 | 33.9 | 3630 | 3.09
 |  |  |  | O=C(C1CC1)N1CCN(C[C@H]2C[C@@H]3c4ccccc4Cc4ccc(F)cc4[C@@H]3O2)CC1 [Compound 78, [2R-(2α, 3aα, 12bβ)]cyclopropyl-[4-(11-fluoro-3,3a, 8,12b-tetrahydro-2H-1-oxa-dibenzo[e,h]azulen-2-ylmethyl)-piperazin-1-yl]-methanone.oxalate (1:1)] | 8.91 | 36.3 | > 10000 | 2.24
 |  |  |  | O=C(C1CCCC1)N1CCN(CC2CC3c4ccccc4Cc4ccc(F)cc4C3O2)CC1 (stereo not drawn) [Compound 79] | 51.3 | 44.7 | > 10000 | 4.79
 |  |  |  | O=C(c1cccs1)N1CCN(CC2CC3c4ccccc4Cc4ccc(F)cc4C3O2)CC1 (stereo not drawn) [Compound 81] | 5.01 | 35.5 | > 10000 | 0.724
 |  |  |  | O=C(c1ccccc1)N1CCN(CC2CC3c4ccccc4Cc4ccc(F)cc4C3O2)CC1 (stereo not drawn) [Compound 82, [2R-(2α, 3aα, 12bβ)][4-(11-fluoro-3,3a,8,12b-tetrahydro-2H-1-oxa-dibenzo[e,h]-azulen-2-ylmethyl)-piperazin-1-yl]-phenyl-methanone.oxalate (1:1)] | 3.24 | 19.5 | > 10000 | 2.14
 |  |  |  | C=CCOC(=O)N1CCN(CC2CC3c4ccccc4Cc4ccc(F)cc4C3O2)CC1 (stereo not drawn) [Compound 84] | 25.1 | 25.7 | > 10000 | 8.13
 |  |  |  | CCNC(=O)N1CCN(C[C@H]2C[C@@H]3c4ccccc4Cc4ccc(F)cc4[C@@H]3O2)CC1 [Compound 86] | 3.02 | 55 | 7080 | 0.832
 |  |  |  | CSCCNC(=O)N1CCN(CC2CC3c4ccccc4Cc4ccc(F)cc4C3O2)CC1 (stereo not drawn) [Compound 87] | 3.09 | 25.7 | 5890 | 1.26
 |  |  |  | CC(C)NC(=O)N1CCN(CC2CC3c4ccccc4Cc4ccc(F)cc4C3O2)CC1 (stereo not drawn) [Compound 88] | 5.5 | 22.9 | 6460 | 0.38
